What was measured:
Format in all cases: in vivo, New Zealand White rabbits
[1] = test system: female ovariectomized rabbits; assay: Intimal thickening (advanced lesions) in carotid artery after de-endothelialisation; settings: for Advanced lesions in carotid artery: intimal surface: cholesterol diet, OVX, necropsy at 20 weeks
Experimental: (§1) The model is considered relevant to the human atherosclerotic process, because the cellular events occurring during the development of the atherosclerotic lesions during the atherogenic diet are similar to those observed in different stages of atherosclerotic processes in coronary arteries.
(§2) An experiment was performed with 7 groups of sexually mature, virgin female New Zealand White rabbits (Harlan, Zeist, The Netherlands), age 7-9 months and weighing approximately 3 kg (number of […] per group: 13-14). During the acclimatization period the rabbits were fed a diet of standard commercial rabbit chow LKK20 (Hope Farms, Woerden, The Netherlands). Three weeks prior to the start of the experiment the animals were anaesthetized and underwent bilateral ovariectomy (OVX) or were sham operated. After three weeks, at the start of the experiment, the rabbits were randomized over the treatment groups. In all animals de-endothelialisation of a segment of the left carotid artery was applied by using the air-drying technique (Fishman, J.A. et al., "Endothelial regeneration in the rat carotid artery and the significance of endothelial denudation in the pathogenesis of myointimal thickening", Lab. Invest. 1975, 32, 339-351; and Lafont, A. et al., "Restenosis and experimental angioplasty: Intimal, medial and adventitial changes associated with constructive remodeling", Circulation Research, 1995, 76, 996-1002)
(§3) The animals were randomly allocated into 7 experimental groups using a randomized block design. The groups were fed an atherogenic diet (commercial rabbit chow (LKK20) enriched with 0.4 grams cholesterol, 3.75 grams coconut oil and 3.75 grams peanut oil per 100 grams). One group was fed the standard rabbit chow (LKK20). Food intake was restricted to 80 grams daily.
(§4) The treatments (Table I) were daily administered orally as a tablet, prepared as in Example 1. Groups 1, 2 and 3 were on a daily placebo treatment. Groups 4-5 were treated with 7α-methyl-17α-ethynyl-17β-hydroxy-estra-5(10)-en-3-one (OD-14; tibolone; 6 or 2 mg daily); group 6 with 17β-estradiol (4 mg daily). Group 7 was on treatment with 17β-estradiol decanoate (150 µg in 1 ml arachis oil injected subcutaneously once a week).
During the experiment blood samples were drawn out of the central ear artery after sedation with Hypnorm (0.1 ml i.m.) (Janssen Pharmaceutics, Beerse, Belgium) before the daily treatment, at week 4,8,12,16 and 20, to monitor the plasma cholesterol levels and to measure, at week 17, plasma estradiol levels and plasma tibolone levels. Twenty weeks after the start of the experiment animals were anaesthetized by an i.m. injection of Hypnorm (0.5 ml/kg). After blood sampling the rabbits were killed by exsanguination and the aortic arch, uterus and carotid artery removed for further analyses. […]
The left (airdried) carotid artery was dissected and fixed in 2% paraformaldehyde containing 6.8% glucose. The right carotid artery was used as comparison. After fixation the tissue was divided in blocks with a length of 2 mm and embedded in paraffin (Paraplast plus®, Sherwood Medical Co, St. Louis, USA) using an automated tissue processor (Hypercenter XP, Shandon).
To measure intimal thickening (using image analysis) a specific staining method and a belonging image analysis application have been developed.
Measurements were performed on 2 µm transverse sections which were treated with elastase (Serva Feinbiochemica Gmbh, Heidelberg, Germany) prior to elastin staining with Lawson solution (Boom, Meppel, the Netherlands) and light green (Sigma). Subsequently sections were airdried and mounted in Pertex (Leica Gmbh, Nussloch, Germany).
For morphological study both methylene blue/Azur II and hemotoxylin/eosin stained (2 µm) transverse sections were used. Smooth muscle cells and macrophages were detected with respectively α-actin antibodies (Sigma) and anti-macrophage antibodies (RAM11, DAKO, Glostrup, Denmark). […]

[2] = Plasma estradiol and plasma tibolone levels at week 17; settings: rabbit, 6 mg per day
Experimental: (§5) During the experiment blood samples were drawn out of the central ear artery after sedation with Hypnorm (0.1 ml i.m.) (Janssen Pharmaceutics, Beerse, Belgium) before the daily treatment, at week 4,8,12,16 and 20, to monitor the plasma cholesterol levels and to measure, at week 17, plasma estradiol levels and plasma tibolone levels. Twenty weeks after the start of the experiment animals were anaesthetized by an i.m. injection of Hypnorm (0.5 ml/kg). After blood sampling the rabbits were killed by exsanguination and the aortic arch, uterus and carotid artery removed for further analyses.
The plasma levels indicate that both modes of administration of estradiol lead to effective plasma levels. Using the human doses of estradiol and Org OD14 used for HRT treatment and corrected for the caloric intake it was expected that in the rabbit an oral dose of 4 mg estradiol is about equipotent with 6 mg Org OD14.

[3] = Body weight at necropsy, cholesterol fed rabbit model; settings: cholesterol diet, OVX, necropsy at 20 weeks
Experimental: as §1, §2, §3, §4, §5
(§6) In addition to example 2 an additional experiment was performed with two lower doses of Org OD14 and a higher dose of estradiol decanoate. […] The procedures were identical to those in example 2.
(§7) Three weeks prior to the start of the experiment the animals were ovariectomized. At the start of the experiment the carotid artery was de-endothelialised using the air-drying technique. The normal rabbit chow was replaced by the atherogenic diet except for the control group which received during the experiment the normal rabbit chow.
(§8) The treatments (table II) of group 1, 2, 3 and 4 were daily administered orally as a tablet, prepared as in example 1. The doses of Org OD14 per tablet, however, were 0.6 mg and 0.15 mg respectively. Group 5 was on treatment with 17β-estradiol decanoate (300 µg in 1 ml arachis oil injected subcutaneously once a week). Twenty weeks after the start of the experiment was ended in the same manner as described in example 2.
After 20 weeks of diet and of daily treatment, necropsy was performed to determine the accumulation of cholesterol and fatty streaks in the aortic arch and the advanced lesions in the carotid artery. […]

[4] = test system: female ovariectomized rabbits; assay: Fatty streaks in the aortic arch (Sudan Red, image analysis); settings: for Fatty streak in aortic arch: cholesterol diet, OVX, necropsy at 20 weeks
Experimental: as §1, §2, §3, §4, §5, §6, §7, §8
The aortic arch was dissected free, opened longitudinally and fixed in 2% paraformaldehyde. The tissue was then stained for lipids using 0.3% (w/v) Sudan Red. Colour photographs were taken of all segments. […]

[5] = test system: female ovariectomized rabbits; assay: Overall atherosclerotic lesion formation, cholesterol fed rabbit model; settings: Example 3: Org OD14 0.6 mg orally daily; estradiol decanoate 300 µg s.c. weekly
Experimental: as §1, §6, §7, §8
In example 3 we tested Org OD14 at two lower doses (0.6 and 0.15 mg orally once daily) and estradiol decanoate at a higher dose (300 µg s.c. once weekly). […]

[6] = Example 2, Group 4: 6 mg orally daily
[7] = Example 2, Group 5: 2 mg orally daily
[8] = Example 2: Org OD14 2 and 6 mg, E2 4 mg orally daily, E2D 150 µg s.c. weekly
[9] = Example 3: 0.15 mg orally once daily
[10] = Example 3: 0.6 mg orally once daily

Question: With `C#C[C@]1(O)CC[C@H]2[C@@H]3[C@H](C)CC4=C(CCC(=O)C4)[C@H]3CC[C@@]21C` [Org OD14, 7α-methyl-17α-ethynyl-17β-hydroxy-estra-5(10)-en-3-one] as the compound, how does the “Advanced lesions in carotid artery: intimal surface” value (“Advanced lesions in carotid artery” for short) [1, 6] read?
Answer: 0.13 ± 0.03 * mm^2

Question: What about the “Advanced lesions in carotid artery” value [1, 7] of the same compound?
Answer: 0.14 ± 0.02 * mm^2

Question: What about the “Histology of the lesions” value ([1]; Example 2, carotid artery, placebo on cholesterol diet: smooth muscle cells and foam cells) of the same compound?
Answer: the lesions consisted only of smooth muscle cells

Question: What about the “advanced lesion formation following mechanical de-endothelisation (in words)” value [1, 8] of the same compound?
Answer: strongly inhibited the formation of advanced lesions

Question: And the “Advanced lesions in carotid artery” value [1, 9]?
Answer: 0.24 ± 0.05 mm^2

Question: What about the “Advanced lesions in carotid artery” value [1, 10] of the same compound?
Answer: 0.14 ± 0.01 * mm^2

Question: What about the “plasma concentrations of Org OD14” value [2] of the same compound?
Answer: comparable to those obtained in women with the clinical dose of 2.5 mg

Question: And the Body weight [3, 6]?
Answer: 2758 ± 41 grams

Question: What about the Body weight [3, 7] of the same compound?
Answer: 2815 ± 50 grams

Question: What about the Body weight [3, 9] of the same compound?
Answer: 2850 ± 42 grams

Question: What about the Body weight [3, 10] of the same compound?
Answer: 3008 ± 58 grams

Question: And the “Fatty streak in aortic arch” value [4, 6]?
Answer: 1.3 ± 0.8 % of arcus covered

Question: And the “Fatty streak in aortic arch” value [4, 7]?
Answer: 1.4 ± 0.7 % of arcus covered

Question: What about the “Fatty streak formation in the aortic arch (in words)” value [4, 8] of the same compound?
Answer: (nearly) completely prevented the fatty streak formation

Question: And the “Fatty streak in aortic arch” value [4, 9]?
Answer: 23.5 ± 5.3 % of arcus covered

Question: And the “Fatty streak in aortic arch” value [4, 10]?
Answer: 5.9 ± 2.4 % of arcus covered

Question: What about the “atherosclerotic lesion formation (in words)” value [5] of the same compound?
Answer: still nearly completely prevented
